Among the test systems are HL-60(TB) leukemia; HCT-116 colon; A498 renal; UACC-257 melanoma; HOP-62 NSCLC; HCC-2998 colon; 786-0 renal; HOP-92 NSCLC; SK-MEL-2 melanoma; PC-3 prostate.
Holding throughout (assay): DTP human tumour cell line panel, 48 h

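Results reflect a 48-hour exposure of cells in 96-well plates to compound at five concentrations. Abbreviation: GI50, concentration required for 50% inhibition of growth. The concentration for full growth arrest is given as TGI.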

With `c1ccc2sc(C3(N4CCCC4)CCCCCC3)cc2c1`, the TGI (as a rule, the concentration at which net growth stops) in the assay with HL-60(TB) leukemia worked out at 35.4 µM; with HCT-116 colon, 27.7 µM; with A498 renal, 32.5 µM; in the assay on UACC-257 melanoma it was 31 µM; in the assay with HOP-62 NSCLC, 36.1 µM; in the assay with HCC-2998 colon, 27.1 µM. Also, the total growth inhibition concentration (TGI) with 786-0 renal amounted to 27.7 µM; with HOP-92 NSCLC it was 30 µM.

Consider `O=[N+]([O-])c1ccc(C=C2C(Cl)=C(Cl)C(Cl)=C2Cl)cc1`, for which the GI50 (in general, the concentration giving 50% growth inhibition) in the assay on HCT-116 colon was 1.79 µM; in the assay on SK-MEL-2 melanoma, 2.77 µM; in the assay on A498 renal it was 5.13 µM; with HOP-62 NSCLC it was 1.96 µM; in the assay with PC-3 prostate it was 2.71 µM; in the assay on HOP-92 NSCLC it was 2.05 µM. Further, the TGI worked out at 3.37 µM in the assay with HCT-116 colon; 8.89 µM in the assay with SK-MEL-2 melanoma; 26.6 µM in the assay with A498 renal; 4.38 µM with HOP-62 NSCLC; 8.35 µM in the assay on PC-3 prostate; 4.58 µM with HOP-92 NSCLC.

Regarding `CC(C)(C)C(=O)OCC1CCC[N+]2(C)CCCCC12` (stereo not drawn), the TGI in the assay with HCT-116 colon, in the assay on SK-MEL-2 melanoma, in the assay on A498 renal, with UACC-257 melanoma, in the assay with HOP-62 NSCLC and with HCC-2998 colon was > 100 µM each time. For the same molecule, the TGI in the assay with PC-3 prostate, with 786-0 renal and with HOP-92 NSCLC was > 100 µM throughout.

Turning to `COc1cc(C[S+]2CCCC2)c(SC)cc1C[S+]1CCCC1`, the TGI in the assay with HL-60(TB) leukemia, in the assay on HCT-116 colon, in the assay on SK-MEL-2 melanoma, with A498 renal, in the assay on UACC-257 melanoma and in the assay on HOP-62 NSCLC was > 100 µM in each case. Besides, the TGI with HCC-2998 colon, in the assay on 786-0 renal and in the assay on HOP-92 NSCLC was > 100 µM in each case.

For `Clc1c(Cl)c(Cl)c2nn(C3CCCO3)nc2c1Cl` (stereo not drawn), the TGI with HCT-116 colon, in the assay on SK-MEL-2 melanoma, with A498 renal, in the assay on UACC-257 melanoma, in the assay with HOP-62 NSCLC and in the assay with HCC-2998 colon was > 100 µM in each case. For the same molecule, the TGI in the assay with PC-3 prostate and in the assay with 786-0 renal was > 100 µM throughout.

Turning to `COc1cc(-c2cc(=O)c3c(OC)c(OC)c(OC)c(OC)c3o2)c(OC)c(OC)c1OC`, the TGI is > 100 µM in the assay with HL-60(TB) leukemia; > 100 µM with HCT-116 colon; 49.4 µM in the assay with SK-MEL-2 melanoma; > 100 µM with UACC-257 melanoma; > 100 µM with HOP-62 NSCLC; > 100 µM in the assay on HCC-2998 colon. For the same molecule, the concentration for total growth inhibition (TGI) in the assay with PC-3 prostate is 50.1 µM; in the assay with 786-0 renal it was > 100 µM; with HOP-92 NSCLC it was 82.5 µM.

For `CN(c1ccc(Cl)cc1)S(=O)(=O)c1cccc([N+](=O)[O-])c1`, the TGI in the assay on HCT-116 colon, with SK-MEL-2 melanoma, in the assay on UACC-257 melanoma, in the assay on HOP-62 NSCLC, in the assay with HCC-2998 colon and in the assay on PC-3 prostate was > 100 µM throughout. Besides, the total growth inhibition concentration (TGI) with 786-0 renal was > 100 µM.

As for `N#C/C(C(=O)Nc1ccccc1)=C(/N)N1CCOCC1`, the concentration for total growth inhibition (TGI) in the assay with HCT-116 colon, in the assay with SK-MEL-2 melanoma, with A498 renal, with UACC-257 melanoma, with HOP-62 NSCLC and with HCC-2998 colon was > 100 µM each time. For the same molecule, the TGI in the assay with PC-3 prostate, in the assay with 786-0 renal and in the assay on HOP-92 NSCLC was > 100 µM in each case.

With `CN(c1ccc(Cl)cc1)S(=O)(=O)c1ccc([N+](=O)[O-])cc1`, the TGI with HL-60(TB) leukemia, with HCT-116 colon, in the assay on SK-MEL-2 melanoma, with UACC-257 melanoma, in the assay on HOP-62 NSCLC and with HCC-2998 colon was > 100 µM in each case. For the same molecule, the concentration for total growth inhibition (TGI) in the assay with PC-3 prostate and in the assay with 786-0 renal was > 100 µM in each case.

Regarding `CC1CC(N)=Nc2ccccc2N1` (stereo not drawn), the TGI with HL-60(TB) leukemia, in the assay on HCT-116 colon, with SK-MEL-2 melanoma, in the assay with UACC-257 melanoma, with HOP-62 NSCLC and in the assay with HCC-2998 colon was > 100 µM in each case. For the same molecule, the TGI with PC-3 prostate and in the assay on 786-0 renal was > 100 µM throughout.

Turning to `O=C1OC[C@@H]2Cc3cc4c(cc3[C@H](c3ccc5c(c3)OCO5)[C@@H]12)OCO4`, the TGI in the assay on HL-60(TB) leukemia, in the assay with HCT-116 colon, in the assay with SK-MEL-2 melanoma, in the assay with UACC-257 melanoma, with HOP-62 NSCLC and with HCC-2998 colon was > 25 µM throughout. Further, the TGI in the assay with 786-0 renal was > 25 µM.

With `CC(=O)NC1C(OCc2ccccc2)OC(CO)C(O)C1OC(C)C(=O)NC(C)C(=O)NC(CCC(=O)NCCCNc1c2ccccc2nc2cccc([N+](=O)[O-])c12)C(N)=O` (stereo not drawn), the TGI with HL-60(TB) leukemia is > 100 µM; with HCT-116 colon, 2.38 µM; with A498 renal it was 6.11 µM; in the assay with UACC-257 melanoma, 4.71 µM; with HOP-62 NSCLC, 8.78 µM; with HCC-2998 colon, 2.52 µM. In addition, the total growth inhibition concentration (TGI) was > 100 µM in the assay on 786-0 renal and 5.8 µM in the assay on HOP-92 NSCLC.

Regarding `CCCCCCCCCCCCCCCCCCNc1ccn(C2OC(COP(=O)(O)OCC3OC(n4cc(C)c(=O)[nH]c4=O)CC3O)C(O)C2O)c(=O)n1` (stereo not drawn), the TGI turned out to be 30.8 µM with HCT-116 colon; 58.3 µM in the assay with A498 renal; 37.1 µM with UACC-257 melanoma; 32.4 µM in the assay on HOP-62 NSCLC; 32.6 µM in the assay with HCC-2998 colon; 10.2 µM in the assay on PC-3 prostate. Further, the TGI was 31.9 µM with 786-0 renal and 62.8 µM in the assay with HOP-92 NSCLC.

As for `O/N=C1/COC(C(F)(F)F)(C(F)(F)F)C1`, the TGI with HCT-116 colon, with SK-MEL-2 melanoma, with A498 renal, in the assay on UACC-257 melanoma, in the assay on HOP-62 NSCLC and with HCC-2998 colon was > 100 µM in each case. For the same molecule, the TGI in the assay with PC-3 prostate, in the assay on 786-0 renal and in the assay with HOP-92 NSCLC was > 100 µM each time.

With `Cc1cc(=O)[nH]c(NN2C(Cl)C(=O)C2c2cccc(O)c2)n1` (stereo not drawn), the total growth inhibition concentration (TGI) was 29.8 µM with HL-60(TB) leukemia; > 100 µM in the assay with HCT-116 colon; > 100 µM with SK-MEL-2 melanoma; > 100 µM in the assay on UACC-257 melanoma; > 100 µM in the assay on HOP-62 NSCLC; > 100 µM in the assay with HCC-2998 colon. In addition, in the assay with HOP-92 NSCLC, the TGI is > 100 µM.

Consider `O=NN(CCCl)C(=O)NC1CCSc2ccccc21` (stereo not drawn), for which the TGI with HL-60(TB) leukemia is 48.7 µM; with HCT-116 colon, > 100 µM; with SK-MEL-2 melanoma, > 100 µM; in the assay with A498 renal, > 100 µM; with UACC-257 melanoma it was > 100 µM; in the assay with HOP-62 NSCLC it was > 100 µM. For the same molecule, the TGI with HCC-2998 colon and in the assay on HOP-92 NSCLC was > 100 µM each time.

For `CCOC(=O)C1=CC(C)(C(=O)OCC)Nc2c(nc(OC)n(C)c2=O)N1` (stereo not drawn), the TGI with HCT-116 colon, in the assay with SK-MEL-2 melanoma, in the assay with A498 renal, in the assay with UACC-257 melanoma, in the assay with HOP-62 NSCLC and in the assay with HCC-2998 colon was > 10 µM each time. Moreover, the TGI in the assay on PC-3 prostate, in the assay on 786-0 renal and in the assay with HOP-92 NSCLC was > 10 µM in each case.

For the molecule `COC(=O)Cc1cc(O)c(C/C=C(\C)CC/C=C(\C)C(O)C(=O)C=C(C)C)cc1O` (stereo not drawn), the TGI with HL-60(TB) leukemia stood at 12 µM; with HCT-116 colon, 31.1 µM; in the assay on SK-MEL-2 melanoma, 48.6 µM; in the assay on UACC-257 melanoma, 77.6 µM; in the assay on HOP-62 NSCLC, 41.6 µM; in the assay on PC-3 prostate, 87.7 µM. Moreover, the TGI in the assay with 786-0 renal was > 100 µM; in the assay on HOP-92 NSCLC it was 47.7 µM.

Take `Cc1ccc(S(=O)(=O)Oc2cc(-c3ccccc3)nc3ccccc23)cc1`: the TGI turned out to be 6.88 µM in the assay with HL-60(TB) leukemia; 15.9 µM in the assay with HCT-116 colon; 17 µM in the assay on SK-MEL-2 melanoma; 9.62 µM with A498 renal; 52.2 µM with UACC-257 melanoma; 18.8 µM in the assay with HOP-62 NSCLC. The values for the TGI with HCC-2998 colon and in the assay on HOP-92 NSCLC were 4.49 µM and 22.9 µM, respectively.

In the case of `COc1ccc(C2CC(=O)CC(c3ccc(OC)cc3)C23C(=O)NC(=O)NC3=O)cc1` (stereo not drawn), the concentration for total growth inhibition (TGI) with HL-60(TB) leukemia is 81 µM; in the assay on HCT-116 colon, > 100 µM; in the assay on SK-MEL-2 melanoma it was 46.7 µM; in the assay with UACC-257 melanoma, > 100 µM; with HOP-62 NSCLC it was 82.2 µM; in the assay on HCC-2998 colon, 45.7 µM. Besides, the TGI in the assay on PC-3 prostate is > 100 µM; with 786-0 renal it was > 100 µM; with HOP-92 NSCLC, 78.5 µM.

Regarding `S=C(NCc1ccccc1)c1nc[nH]c1C(=S)NCc1ccccc1`, the TGI in the assay on HL-60(TB) leukemia is 25.5 µM; in the assay on HCT-116 colon, 17.9 µM; in the assay on SK-MEL-2 melanoma it was 22.2 µM; with UACC-257 melanoma, 23.4 µM; in the assay with HOP-62 NSCLC, 26.2 µM; with HCC-2998 colon, 23.6 µM. Besides, the figures for the TGI in the assay on PC-3 prostate, with 786-0 renal and in the assay on HOP-92 NSCLC were 20.4 µM, 18.8 µM and 12.3 µM, respectively.

On to `COc1ccc(N=C2SC(=N/N=c3\sc4ccccc4n3C)SC2=Nc2ccc(OC)cc2)cc1`, for which the TGI in the assay with HCT-116 colon, in the assay with SK-MEL-2 melanoma, in the assay with UACC-257 melanoma, in the assay with HOP-62 NSCLC, with HCC-2998 colon and with PC-3 prostate was > 100 µM each time. Moreover, the total growth inhibition concentration (TGI) with 786-0 renal and in the assay with HOP-92 NSCLC was > 100 µM each time.

Turning to `Cc1cc2nc3c(C#N)c(-c4ccccc4)cc(Nc4ccc(Cl)cc4)n3c2cc1C`, the concentration for total growth inhibition (TGI) with HCT-116 colon, in the assay with SK-MEL-2 melanoma, in the assay on A498 renal, in the assay with UACC-257 melanoma, in the assay with HOP-62 NSCLC and in the assay on HCC-2998 colon was > 100 µM each time. For the same molecule, the TGI in the assay with PC-3 prostate and in the assay with 786-0 renal was > 100 µM throughout.
